Values of other authors as cited in patent US20180221315A1, “COMBINATION THERAPY USING ACAMPROSATE AND D-CYCLOSERINE” (Confluence Pharmaceuticals, LLC, priority 2015, published 2018).

Key:
[1] = target: NR1 NMDA receptor subunit (strychnine-insensitive glycine binding site) (Homo sapiens, UniProt Q05586); details: partial agonist at glycine site of NMDA receptor; relative to glycine alone
[2] = tested on: cognitive impairment produced by hippocampal lesions, anticholinergic agents, and early social deprivation; details: single dose
[3] = tested on: extinction of conditioned fear, maze tasks, visual recognition memory

receptor activation, level of maximum stimulation during exposure to glycine alone [1]: 40-50%
Compound: N[C@@H]1CONC1=O [DCS, D-4-amino-3-isoxazolidone]
effect on cognitive impairment in animal models [2]: reversed cognitive impairment
effect on learning and memory in healthy animals [3]: enhanced extinction of conditioned fear, performance on maze tasks, and visual recognition memory
